Where “and” joins values, the source holds several entries; their conditions need not be identical. Equal values may be shown once.
Assays:
Format in all cases: toxicity, cell-based
HEK-293T = assay: Incucyte cell viability with HEK293T; settings: human, 10 µM, compound concentration 10 uM
Fibroblast = assay: Incucyte cell viability with human fibroblast; settings: 10 µM, compound concentration 10 uM
U2OS = assay: Incucyte cell viability with U2OS; settings: human, 10 µM, compound concentration 10 uM
Further: unitless GR value; below 1 slowed growth and below 0 cell loss.

| Compound | Growth Rate (HEK-293T; 0 h, replicate number 2) | Growth Rate (HEK-293T; 6 h, replicate number 2) | Growth Rate (HEK-293T; 12 h, replicate number 2) | Growth Rate (Fibroblast; 6 h, replicate number 2) | Growth Rate (Fibroblast; 12 h, replicate number 2) | Growth Rate (U2OS; 6 h, replicate number 1) | Growth Rate (U2OS; 6 h, replicate number 2) | Growth Rate (U2OS; 12 h, replicate number 1) | Growth Rate (U2OS; 12 h, replicate number 2) | Growth Rate (U2OS; 18 h, replicate number 1) | Growth Rate (U2OS; 18 h, replicate number 2) | Growth Rate (U2OS; 24 h, replicate number 1) | Growth Rate (U2OS; 24 h, replicate number 2) | Growth Rate (HEK-293T; 0 h, replicate number 1) | Growth Rate (HEK-293T; 24 h, replicate number 2) | Growth Rate (Fibroblast; 0 h, replicate number 1) | Growth Rate (Fibroblast; 12 h, replicate number 1) | Growth Rate (Fibroblast; 18 h, replicate number 1) | Growth Rate (Fibroblast; 18 h, replicate number 2) | Growth Rate (Fibroblast; 24 h, replicate number 2) | other results |
| --- | --- | --- | --- | --- | --- | --- | --- | --- | --- | --- | --- | --- | --- | --- | --- | --- | --- | --- | --- | --- | --- |
| CCNC(=O)c1ccc2c(c1)NC(=O)/C2=C(\Nc1ccc(CN(C)C)cc1)c1ccccc1 | -1 | 0.16 | 0.83 | 0.09 | 0.8 | 0.67 and 0.82 | 1 | 0.63 and 0.95 | 0.85 | 0.75 and 0.9 | 0.8 | 0.84 and 0.87 | 0.83 |  |  |  |  |  |  |  | Growth Rate (Fibroblast; 0 h, replicate number 2): 0.87; Growth Rate (U2OS; 0 h, replicate number 2): 0.96 |
| N[C@H](C(=O)O)[C@@H]1CC(Cl)=NO1 [ACIVICIN] |  | 0.69 | 0.57 | -0.62 | 0.4 |  |  | 0.81 |  | 0.99 |  | 0.51 |  | 0.17 | 0.37 | -1 | 0.08 | 0.11 | 0.21 | 0.56 | Growth Rate (HEK-293T; 12 h, replicate number 1): 0.69; Growth Rate (HEK-293T; 18 h, replicate number 1): 0.51; Growth Rate (HEK-293T; 18 h, replicate number 2): 0.37; Growth Rate (HEK-293T; 24 h, replicate number 1): 0.43; Growth Rate (Fibroblast; 6 h, replicate number 1): -0.24; Growth Rate (Fibroblast; 24 h, replicate number 1): 0.22 |
| CCC(C)(C)CC[C@H](NC(=O)N1CCOCC1)C(=O)NC1(C#N)CCN(C)CC1 | -0.17 |  | 0.91 | -0.59 | 0.5 | 1 |  |  | 0.96 |  |  | 0.88 |  | 0.93 |  |  |  |  | 0.95 | 0.95 | Growth Rate (Fibroblast; 6 h, replicate number 1): 0.76; Growth Rate (U2OS; 0 h, replicate number 1): 0.09; Growth Rate (U2OS; 0 h, replicate number 2): -0.03 |
| CC(C)[C@@H]1CC[C@@H](C)C[C@@H]1P(=O)(c1ccccc1)c1ccccc1 |  | 0.56 |  |  |  | 0.44 |  | 0.44 | 0.96 | 0.78 |  | 0.74 | 1 | 0.49 |  | 0.25 |  |  | 0.92 |  | Growth Rate (Fibroblast; 24 h, replicate number 1): 0.9 |
| NC1=NC(=O)/C(=C2\CCNC(=O)c3[nH]c4ccccc4c32)N1 | 0.25 |  |  |  |  | 0.43 | 0.45 | 0.63 | 0.7 | 0.74 | 0.65 | 0.78 |  | 0.81 |  | 0.39 | -1 | -0.07 |  |  |  |
| COC(=O)c1cc2c(cn1)[nH]c1ccccc12 [BETA-CCM] |  |  | 0.64 | -0.82 | 0.65 |  | 0.6 | 0.72 | 0.95 | 0.85 | 1 | 0.98 | 0.97 |  | 0.86 | 0.3 | -1 |  | 0.98 | 0.9 | Growth Rate (HEK-293T; 6 h, replicate number 1): 0.67; Growth Rate (HEK-293T; 18 h, replicate number 2): 0.78; Growth Rate (Fibroblast; 6 h, replicate number 1): 0.4; Growth Rate (U2OS; 0 h, replicate number 2): -0.72 |
| Cc1nccn1CC1CCc2c(c3ccccc3n2C)C1=O.Cl (stereo not given) |  | 0.6 | 0.75 |  |  | 0.77 | 0.44 | 0.96 |  | 0.91 | 0.88 |  |  |  | 0.87 |  |  |  |  | 0.9 | Growth Rate (HEK-293T; 6 h, replicate number 1): 0.82; Growth Rate (HEK-293T; 18 h, replicate number 2): 0.79; Growth Rate (U2OS; 0 h, replicate number 1): -0.28 |
| CN1CCN(c2nc(N)c3ccccc3n2)CC1 | 0.8 | 0.91 |  |  | 0.67 | 0.43 | 0.36 | 0.81 | 0.53 | 0.76 |  | 0.77 | 0.83 | 0.4 |  |  | -1 | 0.78 |  |  | Growth Rate (Fibroblast; 6 h, replicate number 1): 0.45; Growth Rate (U2OS; 0 h, replicate number 2): -0.89 |
| CN(C)c1cc2c(Nc3ccc4c(cnn4Cc4ccccc4)c3)ncnc2cn1 [GW282974X] | -0.53 |  | 0.95 |  |  |  | 0.77 | 0.77 | 0.87 | 0.83 | 0.91 |  | 0.65 | -1 | 0.61 | -1 |  |  | 0.86 | 0.69 | Growth Rate (HEK-293T; 18 h, replicate number 1): 0.8; Growth Rate (HEK-293T; 18 h, replicate number 2): 0.77; Growth Rate (HEK-293T; 24 h, replicate number 1): 0.59; Growth Rate (Fibroblast; 24 h, replicate number 1): 0.77; Growth Rate (U2OS; 0 h, replicate number 1): -0.05 |
| Cl.N/C(=N\C(=O)c1nc(Cl)c(N)nc1N)NCc1ccccc1 [BENZAMIL HYDROCHLORIDE] |  | 0.79 | 1 | -0.19 | 0.56 |  |  |  | 0.99 | 1 |  |  | 0.94 |  |  | 0.69 |  |  | 0.68 | 0.74 | Growth Rate (HEK-293T; 6 h, replicate number 1): 0.83; Growth Rate (Fibroblast; 6 h, replicate number 1): -0.25; Growth Rate (U2OS; 0 h, replicate number 1): 0.13 |
| CC(C)NC(=O)[C@H]1CCC[C@H]1Nc1nc(Nc2ccc(C(=O)N(C)C3CCN(C)CC3)cc2)ncc1Cl | -1 |  |  | -0.29 |  |  | 0.48 |  | 0.53 and 0.52 | 0.54 and 0.76 | 0.6 and 0.8 | 0.63 | 0.61 and 0.9 |  | 0.69 and 0.88 | -1 | 0.11 and 0.25 | 0.31 and 0.66 | 0.24 and 0.59 | 0.47 | Growth Rate (HEK-293T; 12 h, replicate number 1): 0.62 and 0.41; Growth Rate (HEK-293T; 18 h, replicate number 1): 0.71 and 0.79; Growth Rate (HEK-293T; 18 h, replicate number 2): 0.56; Growth Rate (HEK-293T; 24 h, replicate number 1): 0.85; Growth Rate (Fibroblast; 24 h, replicate number 1): 0.54; Growth Rate (U2OS; 0 h, replicate number 1): 0.59; Growth Rate (U2OS; 0 h, replicate number 2): 0.92 |
| Cc1cc(Nc2ncc(Cl)c(Nc3ccccc3S(=O)(=O)C(C)C)n2)c(OC(C)C)cc1C1CCNCC1 [CERITINIB] |  | -0.87 | -0.49 | -1 | -0.99 | -0.98 | -0.96 | -0.79 | -0.82 | -0.64 | -0.68 | -0.57 | -0.61 |  | -0.26 | -0.31 | -1 | -0.92 | -0.93 | -0.84 | Growth Rate (HEK-293T; 6 h, replicate number 1): -0.91; Growth Rate (HEK-293T; 12 h, replicate number 1): -0.6; Growth Rate (HEK-293T; 18 h, replicate number 1): -0.4; Growth Rate (HEK-293T; 18 h, replicate number 2): -0.35; Growth Rate (HEK-293T; 24 h, replicate number 1): -0.33; Growth Rate (Fibroblast; 24 h, replicate number 1): -0.63; Growth Rate (U2OS; 0 h, replicate number 1): 0.45 |
| CC(=O)Nc1nc2c(Oc3cc(-c4ccc(C(F)(F)F)cc4)ncn3)cccc2s1 [AMG-517] |  | 0.69 |  | -0.6 | 0.8 | 0.79 | 0.81 | 0.8 | 0.88 |  | 0.91 | 0.86 | 0.96 | 0.87 | 0.99 | -0.1 | -1 |  |  |  | Growth Rate (HEK-293T; 6 h, replicate number 1): 0.63; Growth Rate (HEK-293T; 12 h, replicate number 1): 0.82; Growth Rate (HEK-293T; 18 h, replicate number 1): 0.67; Growth Rate (HEK-293T; 24 h, replicate number 1): 0.89; Growth Rate (Fibroblast; 0 h, replicate number 2): -1; Growth Rate (Fibroblast; 6 h, replicate number 1): -0.08; Growth Rate (U2OS; 0 h, replicate number 2): -0.37 |
| CN(Cc1cccc(F)c1CNc1cc(F)c(S(=O)(=O)Nc2cscn2)c(F)c1)C(C)(C)C | 0.65 |  |  |  |  | 0.37 | 0.58 | 0.72 | 0.86 | 0.89 | 0.97 | 0.9 | 0.96 | 0.6 |  |  |  | 0.65 |  |  | Growth Rate (Fibroblast; 0 h, replicate number 2): -0.81 |
| CN(C)[C@H]1C[C@H](n2cnc(-c3ccc(F)cn3)c2-c2ccnc3[nH]ccc23)C1 | -0.95 | 0.95 |  |  |  |  | 0.94 |  | 0.81 |  | 0.94 |  | 0.85 | 0.9 |  |  | 0.89 | 0.84 |  |  | Growth Rate (Fibroblast; 0 h, replicate number 2): 0.15; Growth Rate (U2OS; 0 h, replicate number 1): 0.83 |
| CC[C@]1(C)C[C@@H](OC(=O)CSc2nnc(N)[nH]2)[C@@]2(C)[C@H](C)CC[C@@]3(CCC(=O)[C@H]32)[C@@H](C)[C@@H]1O |  | 0.46 | 0.81 | -0.93 | 0.82 |  |  | 0.98 |  | 0.95 |  |  |  |  | 0.87 |  |  | 0.7 | 0.99 | 0.97 | Growth Rate (HEK-293T; 6 h, replicate number 1): 0.09; Growth Rate (HEK-293T; 12 h, replicate number 1): 0.86; Growth Rate (HEK-293T; 18 h, replicate number 1): 0.65; Growth Rate (HEK-293T; 18 h, replicate number 2): 0.83; Growth Rate (HEK-293T; 24 h, replicate number 1): 0.84; Growth Rate (Fibroblast; 0 h, replicate number 2): -0.62; Growth Rate (Fibroblast; 6 h, replicate number 1): -0.17 |

From ChEMBL document CHEMBL5303304, “EUbOPEN Chemogenomics Library - IncuCyte” (2023)
